Two molecules from PMC8844822, “SARM1 is a multi-functional NAD(P)ase with prominent base exchange activity, all regulated bymultiple physiologically relevant NAD metabolites” (iScience, 2022) can be followed below.

Molecules are shown by their SMILES.

For experiment [1], the target named is T1, hSARM1 SAM-TIR (Homo sapiens, UniProt Q6SZW1).
T1 construct: made in house
T1 sequence (Q6SZW1 409-724): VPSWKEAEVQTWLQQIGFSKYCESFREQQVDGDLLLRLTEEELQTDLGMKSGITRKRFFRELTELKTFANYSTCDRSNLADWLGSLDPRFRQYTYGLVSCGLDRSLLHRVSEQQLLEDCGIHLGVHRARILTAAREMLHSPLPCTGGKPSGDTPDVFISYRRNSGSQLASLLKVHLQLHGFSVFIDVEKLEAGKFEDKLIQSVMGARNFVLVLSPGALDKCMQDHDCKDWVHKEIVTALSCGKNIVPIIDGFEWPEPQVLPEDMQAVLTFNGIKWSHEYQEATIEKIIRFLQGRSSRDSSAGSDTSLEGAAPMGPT
Briefly: Base exchange reactions at neutral pH (HPLC). Format: biochemical. The protocol:
Multiple time stops from individual assays as above were analyzed for linearity, then extents of hydrolysis (white bars), cyclization (red bars), or base exchange (black bars) were calculated from each corresponding product as shown in Figure 1B and STAR methods. […] See also Figures S3–S5, and Table S1
Rates were calculated as follows.

Experiment [2] has as its target T2, hSARM1 full length (Homo sapiens, UniProt Q6SZW1).
T2 construct: Human recombinant SARM1 full length proteins (wild-type and E642A mutant); made in house
T2 sequence (Q6SZW1 28-724): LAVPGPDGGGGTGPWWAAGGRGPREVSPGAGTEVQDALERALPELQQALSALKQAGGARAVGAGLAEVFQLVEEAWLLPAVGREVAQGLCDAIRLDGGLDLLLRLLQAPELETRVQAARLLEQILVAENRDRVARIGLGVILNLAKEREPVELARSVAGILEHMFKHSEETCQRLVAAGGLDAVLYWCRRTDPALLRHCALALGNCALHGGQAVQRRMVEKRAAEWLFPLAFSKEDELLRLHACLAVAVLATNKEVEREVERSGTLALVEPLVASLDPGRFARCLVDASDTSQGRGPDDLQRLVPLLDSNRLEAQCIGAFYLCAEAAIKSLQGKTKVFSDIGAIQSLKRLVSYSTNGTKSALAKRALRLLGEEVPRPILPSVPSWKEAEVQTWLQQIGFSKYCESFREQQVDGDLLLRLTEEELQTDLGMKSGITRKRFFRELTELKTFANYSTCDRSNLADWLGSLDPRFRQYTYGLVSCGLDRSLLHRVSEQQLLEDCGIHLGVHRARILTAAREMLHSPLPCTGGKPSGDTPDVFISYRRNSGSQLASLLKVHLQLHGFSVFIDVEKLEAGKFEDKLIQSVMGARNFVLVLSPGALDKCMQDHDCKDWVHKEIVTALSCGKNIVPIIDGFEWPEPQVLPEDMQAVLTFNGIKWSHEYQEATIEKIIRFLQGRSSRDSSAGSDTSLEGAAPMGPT
Briefly: Base exchange reactions at neutral pH (HPLC). It is filed as biochemical.

Setting [3] is: NAD […] alone or + AcPyr 2 mM / Vacor 0.5 mM / Na 2 mM.
Setting [4] is: NADP […] alone or + AcPyr 2 mM / Vacor 0.5 mM / Na 2 mM.
Where [5] appears, read: hSARM1 full length +NMN 0.2 mM, NAD […].
The mark [6] stands for this setting: hSARM1 full length +NMN 0.2 mM, NAD […] alone or + free base.
Setting [7] is: hSARM1 full length +NMN 0.2 mM, NAD […], relative to NAD alone without trigger.
Setting [8] is: hSARM1 full length +NMN 0.2 mM, NADP […].
The mark [9] stands for this setting: hSARM1 full length +NMN 0.2 mM, NADP […] alone or + free base.
Where [10] appears, read: hSARM1 full length +NMN 0.2 mM, NADP […], relative to NADP alone without trigger.
Setting [11] is: hSARM1 full length +VMN 0.05 mM, NAD […].
[12] abbreviates: hSARM1 full length +VMN 0.05 mM, NAD […] alone or + free base.
Where [13] appears, read: hSARM1 full length +VMN 0.05 mM, NAD […], relative to NAD alone without trigger.
Where [14] appears, read: hSARM1 full length +VMN 0.05 mM, NADP […].
Setting [15] is: hSARM1 full length +VMN 0.05 mM, NADP […] alone or + free base.
Setting [16] is: hSARM1 full length +VMN 0.05 mM, NADP […], relative to NADP alone without trigger.
[17] abbreviates: hSARM1 full length, no trigger, NAD […] alone or + AcPyr 2 mM / Vacor 0.5 mM / Na 2 mM, pH 7.5.
Setting [18] is: hSARM1 full length, no trigger, NADP […] alone or + AcPyr 2 mM / Vacor 0.5 mM / Na 2 mM, pH 7.5.

Turning to `CC(=O)c1cccnc1` [AcPyr, 3-acetylpyridine], the rate in experiment [1] (setting [3]) worked out at 427.3 ±76.5 mU/mg; in experiment [1] (setting [4]) it was 261.7 ±60.9 mU/mg; in experiment [2] (setting [6]) it was 218.5 ±37.4 mU/mg; in experiment [2] (setting [9]), 131.1 ±17.0 mU/mg; in experiment [2] (setting [12]), 228.9 ±18.9 mU/mg; in experiment [2] (setting [15]), 140.7 ±13.3 mU/mg. Also, the rate in experiment [2] (setting [17]) is given as 42.6 ±3.34 mU/mg; in experiment [2] (setting [18]) it was 26.6 ±1.71 mU/mg. Further, the “base exchange, share of products” value in experiment [2] (setting [5]) stood at 92.73%; in experiment [2] (setting [8]), 93.20%; in experiment [2] (setting [11]), 93.61%; in experiment [2] (setting [14]), 94.18%. In addition, the “cyclization, share of products” value in experiment [2] (setting [5]) was determined as 0.80%; in experiment [2] (setting [11]) it was 0.68%. Besides, the “hydrolysis, share of products” value in experiment [2] (setting [5]) stood at 6.47%; in experiment [2] (setting [8]) it was 6.80%; in experiment [2] (setting [11]), 5.72%; in experiment [2] (setting [14]), 5.82%. Also, the “rate (relative fold)” value in experiment [2] (setting [7]) came to 10.02 ±1.71 fold; in experiment [2] (setting [10]) it was 8.92 ±1.16 fold; in experiment [2] (setting [13]) it was 10.49 ±0.867 fold; in experiment [2] (setting [16]), 9.57 ±0.907 fold.

Turning to `O=C(NCc1cccnc1)Nc1ccc([N+](=O)[O-])cc1` [Vacor, 1-(4-nitrophenyl)-3-(pyridin-3-ylmethyl)urea], the rate in experiment [1] (setting [3]) was found to be 284.8 ±51.1 mU/mg; in experiment [1] (setting [4]), 266.0 ±54.1 mU/mg; in experiment [2] (setting [6]), 180.1 ±8.72 mU/mg; in experiment [2] (setting [9]), 134.7 ±5.67 mU/mg; in experiment [2] (setting [12]), 206.2 ±1.12 mU/mg; in experiment [2] (setting [15]), 148.5 ±4.61 mU/mg. For the same molecule, the rate in experiment [2] (setting [17]) was determined as 29.5 ±2.55 mU/mg; in experiment [2] (setting [18]), 22.9 ±1.68 mU/mg. The “base exchange, share of products” value in experiment [2] (setting [5]) is 20.86%; in experiment [2] (setting [8]) it was 23.61%; in experiment [2] (setting [11]), 44.98%; in experiment [2] (setting [14]), 35.56%. In addition, the “cyclization, share of products” value in experiment [2] (setting [5]) is reported as 7.06%; in experiment [2] (setting [8]) it was ~ 0.05%; in experiment [2] (setting [11]), 4.75%; in experiment [2] (setting [14]) it was 0.50%. Moreover, the “hydrolysis, share of products” value turned out to be 72.08% in experiment [2] (setting [5]), 76.34% in experiment [2] (setting [8]), 50.27% in experiment [2] (setting [11]) and 63.94% in experiment [2] (setting [14]). Also, the “rate (relative fold)” value is given as 8.26 ±0.400 fold in experiment [2] (setting [7]), 9.16 ±0.386 fold in experiment [2] (setting [10]), 9.45 ±0.051 fold in experiment [2] (setting [13]) and 10.11 ±0.314 fold in experiment [2] (setting [16]). The “base exchange products VAD(P) or NaAD(P), share of total products” value in experiment [2] (hSARM1 full length, NAD or NADP 250 μM, vacor 0.5 mM, Na 2 mM) was 20%–30%.
